Reference: ChEMBL document CHEMBL1201862, “PubChem BioAssay data set” (2004)
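Cells were grown in 96-well plates and exposed to each compound for 48 hours at five concentrations; endpoints were interpolated linearly between bracketing concentrations, or set to the highest concentration if not reached. GI50 = concentration required for 50% inhibition of growth.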 The source made the active and inactive calls. Rule as the data show it: active = GI50 up to about 1.1 µM and inactive = higher. Where a SMILES comes first, the peptide text is derived from it. The star is where a group is joined. Cbz = O=C(OCc1ccccc1)*; NHNH2 = NN*

What was measured:
Test in all cases: growth of human tumour cells (NCI), 48 h
[1] = test system: HL-60
[2] = test system: BT-549
[3] = test system: SR
[4] = test system: HT-29
[5] = test system: HCT-116
[6] = test system: SW-620
[7] = test system: EKVX
[8] = test system: RPMI-8226
[9] = test system: NCI/ADR-RES
[10] = test system: SK-MEL-5
[11] = test system: Hs-578T
[12] = test system: DU-145
[13] = test system: NCI-H226
[14] = test system: CAKI-1
[15] = test system: MCF7

| Structure (SMILES) | GI50 [1] | GI50 [2] | GI50 [3] | GI50 [4] | GI50 [5] | GI50 [6] | GI50 [7] | GI50 [8] | GI50 [9] | GI50 [10] | GI50 [11] | GI50 [12] | GI50 [13] | GI50 [14] | GI50 [15] |
| --- | --- | --- | --- | --- | --- | --- | --- | --- | --- | --- | --- | --- | --- | --- | --- |
| CCOC(O)(NC(=O)C(C(F)(F)F)C(F)(F)F)C(F)(F)F (centres undefined) | > 100 µM (inactive) | > 100 µM (inactive) | > 100 µM (inactive) | > 100 µM (inactive) | > 100 µM (inactive) | > 100 µM (inactive) | > 100 µM (inactive) | > 100 µM (inactive) | > 100 µM (inactive) | > 100 µM (inactive) | > 100 µM (inactive) |  |  |  |  |
| C=CCOC1=C(OC(C)=O)C(C2COC(C)(C)O2)OC1=O (centres undefined) | 19.6 µM (inactive) | 27.4 µM (inactive) |  | 19.9 µM (inactive) | 17.6 µM (inactive) | 16.5 µM (inactive) | 20.1 µM (inactive) | 22.1 µM (inactive) | 31.5 µM (inactive) | 16.9 µM (inactive) | 33.4 µM (inactive) | 36.6 µM (inactive) | 95.3 µM (inactive) | 1.95 µM (inactive) | 16.7 µM (inactive) |
| CCOC(=O)CCC(NC(=O)OCc1ccccc1)C(=O)NC(CCC(=O)OCC)C(=O)NN (centres undefined) (Cbz-Glu(OEt)-Glu(OEt)-NHNH2; configuration not given here) | > 100 µM (inactive) | > 100 µM (inactive) | > 100 µM (inactive) | > 100 µM (inactive) | > 100 µM (inactive) | > 100 µM (inactive) | > 100 µM (inactive) | > 100 µM (inactive) |  | > 100 µM (inactive) | > 100 µM (inactive) |  | > 100 µM (inactive) |  | > 100 µM (inactive) |
| O=c1c2c(F)c(F)c(F)c(F)c2sc2nccn12 | 2.06 µM (inactive) |  | 3.27 µM (inactive) | 16.9 µM (inactive) | 13.9 µM (inactive) | 17.3 µM (inactive) | 24.7 µM (inactive) | 16.7 µM (inactive) | 26.8 µM (inactive) | 18.5 µM (inactive) | 31.3 µM (inactive) | 19.9 µM (inactive) | 25.2 µM (inactive) | 19 µM (inactive) | 17.4 µM (inactive) |
| OCC1OC(n2nc(-c3ccccc3)nc2-c2cnccn2)C(O)C(O)C1O (centres undefined) | > 100 µM (inactive) | > 100 µM (inactive) |  | > 100 µM (inactive) | > 100 µM (inactive) | > 100 µM (inactive) |  | > 100 µM (inactive) | > 100 µM (inactive) | > 100 µM (inactive) |  | > 100 µM (inactive) |  |  | > 100 µM (inactive) |
| Cn1c2c(c3ccccc31)CC(=O)N1CCCC(C1)CC21OCCO1 (centres undefined) | > 100 µM (inactive) | > 100 µM (inactive) | > 100 µM (inactive) | > 100 µM (inactive) | 41.7 µM (inactive) | > 100 µM (inactive) | > 100 µM (inactive) | > 100 µM (inactive) | > 100 µM (inactive) | > 100 µM (inactive) |  | > 100 µM (inactive) | > 100 µM (inactive) | > 100 µM (inactive) | > 100 µM (inactive) |
| NCCCC[C@H](N)C(=O)Nc1ccc(-c2nc3ccccc3s2)cc1Cl |  |  | 2.36 µM (inactive) | 6.79 µM (inactive) | 0.713 µM (active) | 11.5 µM (inactive) | 5.6 µM (inactive) |  | 16.5 µM (inactive) | 12.5 µM (inactive) | 16.3 µM (inactive) | 6.78 µM (inactive) |  | 4.85 µM (inactive) | < 0.034 µM (active) |
| O=C1OC2(C(F)(F)F)Oc3ccccc3CN2C12CCCCC2 (centres undefined) | 16.5 µM (inactive) | 28.4 µM (inactive) | 22.8 µM (inactive) | 23.7 µM (inactive) | 20.2 µM (inactive) | 35.6 µM (inactive) | 38.2 µM (inactive) |  | 31.1 µM (inactive) |  |  | 32.3 µM (inactive) | 27.4 µM (inactive) | 18.7 µM (inactive) | 39.1 µM (inactive) |
| COc1ccc(C2=C(OC(=O)N(C)C)c3cccn3-c3cc(Cl)ccc3S2)cc1 | 6.1 µM (inactive) |  | 6.38 µM (inactive) | > 10 µM (inactive) |  | > 10 µM (inactive) | > 10 µM (inactive) | 2.73 µM (inactive) |  | > 10 µM (inactive) |  | > 10 µM (inactive) |  | > 10 µM (inactive) | 8.51 µM (inactive) |
| Brc1cccc(C2(CCCC3(c4cccc(Br)n4)OCCO3)OCCO2)n1 |  | > 100 µM (inactive) |  |  | > 100 µM (inactive) | > 100 µM (inactive) | > 100 µM (inactive) | > 100 µM (inactive) | > 100 µM (inactive) | > 100 µM (inactive) |  |  | > 100 µM (inactive) | > 100 µM (inactive) | > 100 µM (inactive) |
| COc1cc(/C=N/N=C(\N)NO)cc(OC)c1OC | 23 µM (inactive) |  | 24.5 µM (inactive) | 22.8 µM (inactive) | 32.1 µM (inactive) | 50 µM (inactive) | 19.6 µM (inactive) | 37.2 µM (inactive) | 15.7 µM (inactive) | 20.6 µM (inactive) | 42.2 µM (inactive) | 26.3 µM (inactive) | 20.5 µM (inactive) | 72.4 µM (inactive) | 22.6 µM (inactive) |
| CC(C)CNC(=O)Cn1c2c(c3ccccc31)CCCC2 | 34 µM (inactive) | > 100 µM (inactive) | > 100 µM (inactive) | > 100 µM (inactive) | 27.8 µM (inactive) | > 100 µM (inactive) | 71 µM (inactive) | 40.6 µM (inactive) | 59.7 µM (inactive) | 64.7 µM (inactive) | 50.8 µM (inactive) |  |  | 79.3 µM (inactive) | > 100 µM (inactive) |
| Cn1nc(-c2ccc(S(=O)(=O)N/C(=N/c3ccc(Cl)cc3)NN)s2)cc1C(F)(F)F | < 0.01 µM (active) | 17.8 µM (inactive) | 17.4 µM (inactive) | 16.2 µM (inactive) | 14.9 µM (inactive) | 18.4 µM (inactive) | 14.8 µM (inactive) | 21.3 µM (inactive) | 21.8 µM (inactive) | 18.2 µM (inactive) |  | 17.1 µM (inactive) | 13.4 µM (inactive) | 18.7 µM (inactive) | 21 µM (inactive) |
| NC1CNC(=O)c2c(Cl)sc(Cl)c21 (centres undefined) | > 10 µM (inactive) |  | 41.4 µM (inactive) | > 100 µM (inactive) | > 100 µM (inactive) | > 100 µM (inactive) | > 100 µM (inactive) | > 100 µM (inactive) | > 100 µM (inactive) |  | > 100 µM (inactive) | > 100 µM (inactive) | > 100 µM (inactive) | > 100 µM (inactive) | > 100 µM (inactive) |
| Fc1c(F)c(F)c2c(c1F)CSc1nc3ccccc3n1-2 | > 100 µM (inactive) |  | > 100 µM (inactive) | > 100 µM (inactive) | > 100 µM (inactive) | > 100 µM (inactive) | 5.16 µM (inactive) | > 100 µM (inactive) | > 100 µM (inactive) | > 100 µM (inactive) | > 100 µM (inactive) | > 100 µM (inactive) | > 100 µM (inactive) | > 100 µM (inactive) | > 100 µM (inactive) |
| CSC(=S)N/N=C(\C)c1ccc(S(=O)(=O)N(C)c2ccccc2)cc1 | 6.5 µM (inactive) |  | 5.19 µM (inactive) | 26.1 µM (inactive) | 14.3 µM (inactive) | 41.9 µM (inactive) | 21.8 µM (inactive) | 27.8 µM (inactive) | 28.8 µM (inactive) |  | 15.5 µM (inactive) | > 100 µM (inactive) | 20.1 µM (inactive) | 50.5 µM (inactive) | 18.2 µM (inactive) |
